Measurements taken from publication PMC12030627, “Radioiodinated Bicyclic RGD Peptide Derivatives for Enhanced Tumor Accumulation” (Pharmaceuticals, 2025).

Tested on: A549 and U-87 MG co-implantation mice
Assay: Biodistribution in A549 and U-87 MG co-implantation mice
Format: in vivo, BALB/c nu-nu mice
Experimental: Animal experiments were performed in compliance with institutional animal care regulations, with the study protocol approved by the Experimental Animal Committee of Osaka Medical and Pharmaceutical University (Approval Numbers: 21–76, 22–76, and 23–76). Four-week-old male BALB/c nu-nu mice (Japan SLC, Shizuoka, Japan) were housed under a 12 h light/12 h dark cycle with free access to food and water. Tumor-bearing mice were established by suspending U-87 MG cells (2 × 10^6 cells/mouse) in PBS(–) and subcutaneously injecting 100 μL of the suspension into the right hind leg. For co-implantation models, A549 cells (2 × 10^6 cells/mouse) were suspended in PBS(–) and inoculated (100 μL) into the left hind leg of the same mice already inoculated with U-87 MG cells. Mice with tumor size approximately 10 mm in diameter, 4–5 weeks after inoculation, were used for biodistribution studies. Animals in which either tumor was not viable were excluded from the experiment.
U-87 MG-bearing mice (n = 42, 8–9 weeks old; 22–27 g) were randomly assigned into groups and administered [^125I]bcRGDpal or [^125I]bcRGDiba via intravenous injection (37 kBq in 100 μL of PBS containing 0.1% Tween 80 (PBS-T80)). At 5 min, 30 min, 1 h, 2 h, 6 h, 12 h, or 24 h post-injection, the mice were euthanized (n = 3 per time point). The heart, kidneys, liver, brain, pancreas, spleen, lung, small intestine, large intestine, muscle, skin, stomach, bone, and tumors were excised. Each organ’s weight and radioactivity were measured by a NaI well-type scintillation counter, and the % ID/g was calculated. To investigate the correlation between integrin expression and radioactivity accumulation, biodistribution at 2 h after administration of [^125I]bcRGDpal or [^125I]bcRGDiba was assessed in A549 and U-87 MG co-implantation mice (n = 5) using the same procedure. Additionally, co-implantation mice were injected with [^125I]bcRGDdimer (37 kBq/100 μL PBS-T80) and euthanized at 30 min, 2 h, and 4 h post-injection (n = 4 per time point), and % ID/g values were calculated as described above. The minimum sample size needed for the biodistribution study in U-87 MG-bearing mice was calculated using G Power software version 3.1.9.7. The calculation was based on a two-tailed test, with an effect size of 3.9, a significance level (α) of 0.05, and a statistical power (1 − β) of 0.8. […] The minimum required sample size for the biodistribution study in A549 and U-87 MG co-implantation mice was also calculated to be four animals per group (effect size = 2.5, α = 0.05, 1 − β = 0.8). To guarantee objective results, the experiment was carried out in a blinded manner. Specifically, drug administration and radioactivity measurements were conducted by different investigators to eliminate potential bias.

[1] = 30 min after i.v. administration, U-87 MG and A549 co-implanted mice, mean ± SD, n = 4
[2] = 2 h after i.v. administration, U-87 MG and A549 co-implanted mice, mean ± SD, n = 4
[3] = 4 h after i.v. administration, U-87 MG and A549 co-implanted mice, mean ± SD, n = 4

N=C(N)NCCC[C@@H]1NC(=O)[C@H]2CSCc3cc(cc(c3)CSC[C@H](C(N)=O)NC(=O)[C@H](CC(=O)O)NC(=O)CNC1=O)CSC[C@H](NC(=O)CNC(=O)[C@H](CO)NC(=O)c1ccc(NC(=O)CNC(=O)[C@H](CO)NC(=O)[C@@H]3CCCN3C(=O)[C@@H]3CCCN3C(=O)[C@@H]3CCCN3C(=O)CCc3cn(CC[C@H](NC(=O)CCNC(=O)c4cccc(I)c4)C(=O)N4CCC[C@H]4C(=O)N4CCC[C@H]4C(=O)N4CCC[C@H]4C(=O)N[C@@H](CO)C(=O)NCC(=O)Nc4ccc(C(=O)N[C@@H](CO)C(=O)NCC(=O)N[C@H]5CSCc6cc7cc(c6)CSC[C@@H](NC(=O)[C@H](CCC(N)=O)NC(=O)[C@@H]6CCCN6C(=O)[C@H](Cc6c[nH]cn6)NC5=O)C(=O)N[C@@H](CCCNC(=N)N)C(=O)NCC(=O)N[C@@H](CC(=O)O)C(=O)N[C@@H](C(N)=O)CSC7)cc4)nn3)cc1)C(=O)N[C@@H](Cc1c[nH]cn1)C(=O)N1CCC[C@H]1C(=O)N[C@@H](CCC(N)=O)C(=O)N2 [[^125I]bcRGDdimer]
Radioactivity in thyroid [1]: 0.0 ± 0.0 % injected dose | U87/Muscle radioactivity ratio [1]: 7.1 ± 1.8 | Radioactivity in brain [2]: 0.0 ± 0.0 % injected dose per gram of tissue | Radioactivity in thyroid [2]: 0.0 ± 0.0 % injected dose | U87/Blood radioactivity ratio [2]: 22 | U87/Muscle radioactivity ratio [2]: 13.9 ± 6.8 | Lung-to-blood radioactivity ratio (2 h post-administration): 3.7 | Accumulation ratio U87/A549 (2 h post-administration, co-implanted mice): 5.4 | Radioactivity in brain [3]: 0.0 ± 0.0 % injected dose per gram of tissue | Radioactivity in thyroid [3]: 0.0 ± 0.0 % injected dose | U87/Muscle radioactivity ratio [3]: 10.3 ± 2.5
